Where a name gives a salt, the structure may show the parent alone.

Holding throughout (assay type): biochemical
In one experiment the target is MMP-14 (Homo sapiens, UniProt P50281). Put plainly: MMP-14 enzyme inhibition assay (coumarin-labelled peptide substrate). Particulars: read-out: percentage inhibition MMP14. As for the experimental part: (§1) Compounds of the invention were tested to assess their activities as inhibitors of MMP-1, MMP-2, MMP-9, MMP-14, MMP-12 and TACE. MMP-9 Assay Protocol
(§2) Compounds of the invention were tested for inhibitory activity against 92 kDa gelatinase (MMP-9) in an assay using a coumarin-labeled peptide substrate, (7-methoxycoumarin-4-yl)acetyl-Pro-Leu-Gly-Leu-(3-[2,4-dinitrophenyl]-L-2,3diaminopropionyl)-Ala-Arg-NH2 (McaPLGLDpaAR) (Knight et al, FEBS Lett. 1992; 263-266).
(§3) Stock solutions were made up as follows: Assay Butter: 100 mM Tris-HCl pH 7.6 containing 100 mM NaCl, 10 mM CaCl2, and 0.05% Brij 35.
(§4) Substrate: 0.4 mM McaPLGLDpaAR (from Bachem) (0.437 mg/ml) stock solution in 100% DMSO (stored at −20° C.). Dilute to 8 μM in assay butter.
(§5) Enzyme: Recombinant human 92 kDa gelatinase (MMP-9; APMA (4-aminophenyl mercuric acetate)-activated if necessary) appropriately diluted in assay butter.
(§6) Test Compounds were prepared initially as 10 mM compound solution in 100% DMSO, diluted to 1 mM in 100% DMSO, then serially diluted 3-fold in 100% DMSO across columns 1-10 of a 96-well microtitre plate Assay concentration range, 100 μM (column 1) to 5.1 nM (column 10).
(§7) The assay was performed in a total volume of 100 μL per well in 96-well microtitre plates. Activated enzyme (20 μL) was added to the wells followed by 20 μL of assay butter. Appropriate concentrations of test compounds dissolved in 10 μL of DMSO were then added followed by 50 μL of McaPLGLDpaAR (8 μM, prepared by dilution of DMSO stock in assay butter). For each as say ten concentrations of test compound were examined in duplicate. Control wells lack either enzyme or test compound. The reactions were incubated at 37° C. for 2 hours. The fluorescence at 405 nm was measured immediately with an SLT Fluostar fluorometer (SL T Labinstruments GmbH, Grödig, Austria) using 320 nm excitation, without stopping the reaction.
(§8) The effect of the test compound was determined from the dose response curve generated by the 10 duplicate concentrations of inhibitor. The IC50 (the concentration of compound required to give a 50% decrease in enzyme activity) was obtained by fitting data to the equation, Y=a+((b−a)/(1+(c/X)^d)). (Y=inhibition achieved for a particular dose; X=the dose in nM; a=minimum y or zero % inhibition; b=maximum y or 100% inhibition; c=is the IC50; d=is the slope). The result was rounded to one significant figure.
Compounds of the invention were tested for inhibitory activity against MMP-14 in an assay using a coumarin-labelled peptide substrate, (7-methoxycoumarin-4-yl)acetyl-Pro-Leu-Gly-Leu-(3-[2,4-dinitrophenyl]-L-2,3diaminopropionyl)-Ala-Arg-NH2 (Mca PLGLD paAR) (Knight et al, 1992, above). The protocol for this assay was as described for the MMP-9 assay above.

The next experiment has as its target T1, gelatinase A (MMP-2) (Homo sapiens, UniProt P08253).
T1 sequence (P08253 110-660): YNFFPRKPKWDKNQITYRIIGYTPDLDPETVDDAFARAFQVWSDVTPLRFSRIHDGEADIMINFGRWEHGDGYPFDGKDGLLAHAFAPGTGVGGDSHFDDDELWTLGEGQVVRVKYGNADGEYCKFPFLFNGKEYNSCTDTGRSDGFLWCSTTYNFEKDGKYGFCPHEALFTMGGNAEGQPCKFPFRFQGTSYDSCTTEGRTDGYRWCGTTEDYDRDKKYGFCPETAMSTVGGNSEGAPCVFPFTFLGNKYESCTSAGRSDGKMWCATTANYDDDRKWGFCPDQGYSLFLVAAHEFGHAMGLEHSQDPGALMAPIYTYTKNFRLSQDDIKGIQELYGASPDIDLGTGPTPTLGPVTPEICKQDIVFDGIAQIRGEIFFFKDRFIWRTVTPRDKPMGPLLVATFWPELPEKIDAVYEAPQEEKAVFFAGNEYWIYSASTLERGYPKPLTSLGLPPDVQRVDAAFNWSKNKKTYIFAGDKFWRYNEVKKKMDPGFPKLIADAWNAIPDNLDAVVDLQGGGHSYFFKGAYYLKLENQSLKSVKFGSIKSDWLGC
Put plainly: MMP-2 enzyme inhibition assay (coumarin-labelled peptide substrate). Particulars: read-out: IC50 MMP2. The protocol: Compounds of the invention were tested to assess their activities as inhibitors of MMP-1, MMP-2, MMP-9, MMP-14, MMP-12 and TACE. MMP-9 Assay Protocol […]
as §3
Substrate: 0.4 mM McaPLGLDpaAR (from Bachem) (0.437 mg/ml) stock solution in 100% DMSO (stored at −20° C.). Dilute to 8 μM in assay butter. […]
as §6, §7, §8
Compounds of the invention were tested for inhibitory activity against gelatinase A (MMP-2) in an assay using a coumarin-labelled peptide substrate, (7-methoxycoumarin-4-yl)acetyl-Pro-Leu-Gly-Leu-(3-[2,4-dinitrophenyl]-L-2,3diaminopropionyl)-Ala-Arg-NH2 (Mca PLGLDpaAR) (Knight et al, 1992, above). The protocol for this assay was as described for the MMP-9 assay above.

Another experiment addresses metalloelastase (MMP-12) (Homo sapiens, UniProt P39900). Put plainly: MMP-12 enzyme inhibition assay (coumarin-labelled peptide substrate). Particulars: read-out: IC50 MMP12. As for the experimental part: as §1, §2, §3, §4, §5, §6, §7, §8
Compounds of the invention were tested for inhibitory activity against metalloelastase (MMP-12) in an assay using a coumarin-labelled peptide substrate, (7-methoxycoumarin-4-yl)acetyl-Pro-Leu-Gly-Leu-(3-[2,4-dinitrophenyl]-L-2,3-diaminopropionyl)-Ala-Arg-NH2 (McaPLGLDpaAR) (Knight et al, 1992, above). The protocol for this assay was as described for the MMP-9 assay above.

For experiment [1], the target named is 92 kDa gelatinase (MMP-9) (Homo sapiens, UniProt P14780). The experiment is described as follows: MMP-9 enzyme inhibition assay (coumarin-labeled peptide substrate). Particulars: read-out: IC50 MMP9. The protocol:
as §1, §2, §3, §4, §5, §6, §7, §8

The target of the next experiment is T2, collagenase (MMP-1) (Homo sapiens, UniProt P03956).
T2 sequence (P03956 100-469): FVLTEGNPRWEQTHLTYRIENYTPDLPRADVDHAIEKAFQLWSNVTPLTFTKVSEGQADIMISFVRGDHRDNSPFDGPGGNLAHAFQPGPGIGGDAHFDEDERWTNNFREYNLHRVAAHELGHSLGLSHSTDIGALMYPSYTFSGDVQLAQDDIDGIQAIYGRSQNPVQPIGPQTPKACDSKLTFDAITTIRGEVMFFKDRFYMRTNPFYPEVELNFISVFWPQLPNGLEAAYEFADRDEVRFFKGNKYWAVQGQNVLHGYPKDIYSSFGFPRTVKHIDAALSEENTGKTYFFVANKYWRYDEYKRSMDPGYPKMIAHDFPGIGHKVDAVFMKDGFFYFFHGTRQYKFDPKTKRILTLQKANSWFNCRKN
The experiment is described as follows: MMP-1 enzyme inhibition assay (coumarin-labelled peptide substrate). Particulars: @ 5 μM; read-out: percentage inhibition MMP1. As for the experimental part: as §1, §2, §3, §4, §5, §6, §7, §8
Compounds of the invention were tested for inhibitory activity against collagenase (MMP-1) in an assay using a coumarin-labelled peptide substrate, (7-methoxycoumarin-4-yl)acetyl-Pro-Leu-Gly-Leu-(3-[2,4-dinitrophenyl]-L-2,3diaminopropionyl)-Ala-Arg-NH2 (Mca PLGLDpaAR) (Knight et al, 1992, above). The protocol for this assay was as described for the MMP-9 assay above.

For another experiment, the target named is MMP13 (Homo sapiens, UniProt P45452). Put plainly: MMP13 inhibition (Table 1). Particulars: @ 0.1 μM; read-out: percentage inhibition MMP13.

Chain of 92 kDa gelatinase (MMP-9) (P14780 107-707 limits assumed): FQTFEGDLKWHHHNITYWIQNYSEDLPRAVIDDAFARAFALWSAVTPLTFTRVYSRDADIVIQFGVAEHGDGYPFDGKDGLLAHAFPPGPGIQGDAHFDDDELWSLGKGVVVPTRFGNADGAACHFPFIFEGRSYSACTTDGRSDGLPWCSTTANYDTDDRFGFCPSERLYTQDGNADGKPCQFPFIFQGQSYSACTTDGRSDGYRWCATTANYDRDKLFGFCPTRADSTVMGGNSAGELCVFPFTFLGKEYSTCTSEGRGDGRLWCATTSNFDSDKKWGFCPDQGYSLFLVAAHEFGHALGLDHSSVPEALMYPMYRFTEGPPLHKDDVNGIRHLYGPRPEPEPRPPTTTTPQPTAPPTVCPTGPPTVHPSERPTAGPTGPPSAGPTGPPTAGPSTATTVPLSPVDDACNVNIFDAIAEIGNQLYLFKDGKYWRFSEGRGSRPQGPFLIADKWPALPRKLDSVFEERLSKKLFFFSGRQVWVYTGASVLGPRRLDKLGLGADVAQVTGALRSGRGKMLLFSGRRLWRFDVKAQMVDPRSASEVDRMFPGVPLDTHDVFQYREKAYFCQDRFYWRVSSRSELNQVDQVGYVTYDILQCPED
Chain of metalloelastase (MMP-12) (P39900 106-470): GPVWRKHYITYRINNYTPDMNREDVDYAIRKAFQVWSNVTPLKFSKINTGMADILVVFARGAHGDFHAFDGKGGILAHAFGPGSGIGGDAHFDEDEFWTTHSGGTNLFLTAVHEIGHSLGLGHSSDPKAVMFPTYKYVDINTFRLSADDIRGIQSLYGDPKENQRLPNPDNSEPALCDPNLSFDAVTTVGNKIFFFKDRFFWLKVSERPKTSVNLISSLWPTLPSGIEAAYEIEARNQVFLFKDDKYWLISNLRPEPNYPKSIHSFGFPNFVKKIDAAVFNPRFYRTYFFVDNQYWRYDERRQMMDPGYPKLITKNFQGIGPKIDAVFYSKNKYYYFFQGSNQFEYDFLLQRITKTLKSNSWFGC

On to `CC(C)(C)OC(=O)N1CCC[C@@H]1[C@H](CS(=O)(=O)N1CCc2cc(Cl)c(Cl)cc2C1)N(O)C=O` (racemic) [Example 46, tert-butyl (2RS)-2-{(1RS)-2-[(6,7-dichloro-3,4-dihydro-isoquinolin-2(1H)-yl)sulfonyl]-1-[formyl(hydroxy)amino]ethyl}pyrrolidine-1-carboxylate], for which the inhibition at 0.1 µM at MMP-14 (@ 0.1 μM) worked out at 19%. The IC50 at gelatinase A (MMP-2) was at least 5000 nM; on metalloelastase (MMP-12), 460 nM.

With `O=CN(O)C(CS(=O)(=O)N1CCc2ccccc2C1)c1ccsc1` (stereo not shown) [Example 7, N-[2-(3,4-dihydroisoquinolin-2(1H)-ylsulfonyl)-1-(3-thienyl)ethyl]-N-hydroxyformamide], the results for the half-inhibitory concentration (IC50) (in experiment [1]; at gelatinase A (MMP-2); at metalloelastase (MMP-12)) were above 5000 nM, 784 nM and 18 nM, respectively. Also, the inhibition at 5 µM on MMP-14 was 71%; at collagenase (MMP-1), 31%.

With `O=CN(O)C(CS(=O)(=O)N1CCc2ccccc2C1)c1cccnc1` (stereo not shown) [Example 11, N-[2-(3,4-dihydroisoquinolin-2(1H)-ylsulfonyl)-1-pyridin-3-ylethyl]-N-hydroxyformamide, hydrochloride salt], the IC50 was above 5000 nM in experiment [1] and 26 nM on metalloelastase (MMP-12). Besides, the inhibition at 0.1 µM on MMP13 was determined as 15%.

Turning to `COc1cc2c(cc1OC)CN(S(=O)(=O)CC(C1CCCC1)N(O)C=O)CC2` (stereo not shown) [Example 15, N-{1-cyclopentyl-2-[(6,7-dimethoxy-3,4-dihydroisoquinolin-2(1H)-yl)sulfonyl]ethyl}-N-hydroxyformamide], the IC50 is above 5000 nM in experiment [1], above 5000 nM at gelatinase A (MMP-2) and 185 nM at metalloelastase (MMP-12). In addition, the inhibition at 5 µM at MMP-14 and on collagenase (MMP-1) was 0% throughout.

Regarding `CCC(CC)C(CS(=O)(=O)N1CCc2cc(OC)c(OC)cc2C1)N(O)C=O` (stereo not shown) [Example 17, N-(1-{[(6,7-dimethoxy-3,4-dihydroisoquinolin-2(1H)-yl)sulfonyl]methyl}-2-ethylbutyl)-N-hydroxyformamide], the IC50 in experiment [1] is above 5000 nM; on gelatinase A (MMP-2) it was above 5000 nM; on metalloelastase (MMP-12), 103 nM. Further, the inhibition at 5 µM on MMP-14 and at collagenase (MMP-1) was 0% each time.

For the compound `COc1cc2c(cc1OC)CN(S(=O)(=O)CC(N(O)C=O)C(C)(C)C)CC2` (stereo not shown) [Example 20, N-(1-{[(6,7-dimethoxy-3,4-dihydroisoquinolin-2(1H)-yl)sulfonyl]methyl}-2,2-dimethylpropyl)-N-hydroxyformamide], the IC50 is above 5000 nM in experiment [1], above 5000 nM on gelatinase A (MMP-2) and 280 nM at metalloelastase (MMP-12). Further, the inhibition at 5 µM on MMP-14 and on collagenase (MMP-1) was 0% each time.

`CC(C)CC(CS(=O)(=O)N1CCc2ccc(OC(C)C)cc2C1)N(O)C=O` (stereo not shown) [Example 51, N-hydroxy-N-(1-{[(7-isopropoxy-3,4-dihydroisoquinolin-2(1H)-yl)sulfonyl]methyl}-3-methylbutyl)formamide]: the results for the IC50 on gelatinase A (MMP-2) and on metalloelastase (MMP-12) were 1330 nM and 109 nM, respectively.

Take `CSCCC(CS(=O)(=O)N1CCc2ccc(C(C)(C)C)cc2C1)N(O)C=O` (stereo not shown) [Example 54, N-[1-{[(7-tert-butyl-3,4-dihydroisoquinolin-2(1H)-yl)-sulfonyl]methyl}-3-(methylthio)propyl]-N-hydroxyformamide]: the IC50 was above 5000 nM on gelatinase A (MMP-2) and 234 nM on metalloelastase (MMP-12).

With `CC(C)(C)c1ccc2c(c1)CN(S(=O)(=O)CC(C1CCOCC1)N(O)C=O)CC2` (stereo not shown) [Example 66, N-[2-[(7-tert-butyl-3,4-dihydroisoquinolin-2(1H)-yl)sulfonyl]-1-(tetrahydro-2H-pyran-4-yl)ethyl]-N-hydroxyformamide], the figures for the IC50 on gelatinase A (MMP-2) and at metalloelastase (MMP-12) were above 5000 nM and 209 nM, respectively.

With `CCOC(=O)C1CC1C(CS(=O)(=O)N1CCc2cc(OC)c(OC)cc2C1)N(O)C=O` (stereo not shown) [Example 67, ethyl 2-[2-[(6,7-dimethoxy-3,4-dihydroisoquinolin-2(1H)-yl)sulfonyl]-1-[formyl(hydroxy)amino]ethyl]cyclopropanecarboxylate], the IC50 is above 5000 nM on gelatinase A (MMP-2) and 111 nM at metalloelastase (MMP-12).

Consider `COc1cc2c(cc1OC)CN(S(=O)(=O)CC(C1CC1C(=O)O)N(O)C=O)CC2` (stereo not shown) [Example 71, 2-[2-[(6,7-dimethoxy-3,4-dihydroisoquinolin-2(1H)-yl)-sulfonyl]-1-[formyl(hydroxy)amino]ethyl]cyclopropanecarboxylic acid], for which the concentration for half-maximal inhibition (IC50) is above 5000 nM on gelatinase A (MMP-2) and 585 nM at metalloelastase (MMP-12).

`CC(C)Oc1ccc2c(c1)CN(S(=O)(=O)CC(C1CCCC1)N(O)C=O)CC2` (stereo not shown) [Example 78, N-{1-cyclopentyl-2-[(7-isopropoxy-3,4-dihydroisoquinolin-2(1H)-yl)sulfonyl]ethyl}-N-hydroxyformamide]: the IC50 on gelatinase A (MMP-2) was above 5000 nM; at metalloelastase (MMP-12), 322 nM.

Regarding `COc1cc2c(cc1OC)CN(S(=O)(=O)CC(C1CC1)N(O)C=O)CC2` (stereo not shown) [Example 84, N-{1-cyclopropyl-2-[(6,7-dimethoxy-3,4-dihydro-isoquinolin-2(1H)-yl)sulfonyl]ethyl}-N-hydroxyformamide], the IC50 is above 5000 nM on gelatinase A (MMP-2) and 366 nM at metalloelastase (MMP-12).

The inhibition is the drop in the measured response relative to a control, in per cent. One may read the IC50 as the concentration that inhibits the measured activity by half.

For the origin of these results see US7879876B2, “Sulfonamide derivatives and use thereof for the modulation of metalloproteinases” (Merck Serono SA, priority 2005, dated 2011).
